Experimental data taken from US20110171193A1, “COMPOSITIONS AND METHODS FOR TREATING PULMONARY HYPERTENSION” (THE BOARD OF TRUSTEES OF THE UNIVERSITY OF ILLINOIS, priority 2008, published 2011).
Numbering of substitutions follows the chain as printed. Entries after “also recorded” stand apart in the source; their conditions may differ.

Legend:
purified PKG-1 = target: T1, purified PKG-1 (Bos taurus, UniProt P00516); experiment: In vitro kinase assay of purified PKG-1 after peroxynitrite or DETA NONOate; type: biochemical; conditions: even at 100 μM, 30 min in dark at RT
T1 construct: purchased Promega
T1 sequence (P00516 1-671): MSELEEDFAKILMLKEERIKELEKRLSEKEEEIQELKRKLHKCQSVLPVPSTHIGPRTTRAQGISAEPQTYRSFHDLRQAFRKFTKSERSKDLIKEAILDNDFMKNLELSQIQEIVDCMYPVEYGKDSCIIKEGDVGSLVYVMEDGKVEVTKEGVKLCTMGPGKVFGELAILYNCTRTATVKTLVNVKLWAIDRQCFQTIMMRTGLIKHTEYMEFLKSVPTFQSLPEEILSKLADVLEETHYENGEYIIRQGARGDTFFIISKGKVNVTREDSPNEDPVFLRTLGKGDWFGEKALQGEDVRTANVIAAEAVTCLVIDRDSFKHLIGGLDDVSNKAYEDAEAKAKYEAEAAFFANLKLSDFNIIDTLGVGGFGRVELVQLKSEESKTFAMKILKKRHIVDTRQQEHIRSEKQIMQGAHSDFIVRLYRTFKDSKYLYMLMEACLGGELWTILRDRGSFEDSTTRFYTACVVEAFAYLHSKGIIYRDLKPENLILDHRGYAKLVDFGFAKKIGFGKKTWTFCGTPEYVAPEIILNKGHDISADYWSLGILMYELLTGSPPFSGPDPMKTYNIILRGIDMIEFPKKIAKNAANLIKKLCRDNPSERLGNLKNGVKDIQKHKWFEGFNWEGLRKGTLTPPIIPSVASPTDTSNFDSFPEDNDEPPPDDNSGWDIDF
Protocol: (§1) PKG Kinase Assay. In vitro activity of PKG was determined by measuring the transfer of the [g-^32P] phosphate group of ATP to the specific PKG substrate, BPDEtide (Calbiochem) in the absence or presence of exogenous 2.5 mM cGMP as described in Example 13. PKG activity is expressed as picmoles of ^32P incorporated into PKG substrate per min per microgram protein.
To address the role of peroxynitrite in the mechanism of the observed impairment of PKG activity, we treated human pulmonary artery smooth muscle cells with 3-morpholinosydnonimine (SIN-1), the superoxide and NO donor that forms peroxynitrite simultaneously (30). […] FIG. 9A relates to dose-dependent impairment of PKG activity by peroxynitrite. Purified […] (Promega) was incubated with peroxynitrite at indicated concentrations for 14 min at RT or with DETA NONOate (NONOate) for 30 min in dark at RT. Kinase activity was then assayed. Data is expressed mean+/−SD (n=3). *, P<0.05 versus control (0 μM). FIG. 9B relates to screening of PKG-1a mutants with in vitro kinase assay. At 48 hr post-transfection, myc-tagged WT and PKG-1a mutants were immunoprecipitated with anti-myc beads and aliquoted for incubation with either peroxynitrite (100 μM) or the same amount of 0.1 N NaOH only (CTL). […] PKG activity was expressed as pmoles/min/μg cell lysates. […] Data are expressed as mean±SD (n=3), *, P<0.05 versus either PKG-1a mutant. […]

PKG-I = target: T2, PKG-I (Homo sapiens, UniProt Q13976); experiment: PKG-I tyrosine nitration in human pulmonary artery smooth muscle cells after SIN-1 (IP / anti-nitrotyrosine Western blot); type: cell-based
T2 construct: primary cultures of human pulmonary artery smooth muscle cells were immunoprecipitated overnight with anti-PKG-I; endogenous in cells; host or cells: primary human pulmonary artery smooth muscle cells
T2 sequence (Q13976 1-671): T1 sequence (P00516 1-671) with K265T, N275S
Protocol: Western blot analyses were performed using anti-Cav1 (1:1000, Santa Cruz Biotechnology), anti-eNOS (1:1000, Upstate Biotechnology), and anti-PKG-I (1 mg/ml, a generous gift from Dr. X-P. Du at Department of Pharmacology, University of Illinois at Chicago). The same blots were reprobed with either anti-a-actin (1:400, Santa Cruz Biotechnology) or anti-GAPDH (1:2000, Santa Cruz Biotechnology) as a loading control. To detect PKG-I tyrosine nitration, protein lysates from either mouse lungs or primary cultures of human pulmonary artery smooth muscle cells were immunoprecipitated overnight with anti-PKG-I and then probed with anti-nitrotyrosine (1:2500, Cayman Chemical).
(§2) To test the hypothesis that peroxynitrite modifies PKG through tyrosine nitration thereby impairing kinase activity, we treated subconfluent human pulmonary artery smooth muscle cells with 3-morpholinosydnonimine (SIN-1), a donor of superoxide and NO, which spontaneously forms peroxynitrite at the two concentrations used. […] Each cell lysate (50 mg) was used for immunoprecipitation with an anti-PKG-I antibody and tyrosine nitration of PKG-I was detected by Western blot with anti-nitrotyrosine antibody (NT). Each lysate (15 mg) was used for direct immunoblotting with anti-PKG-I and anti-GAPDH, respectively. CTL, control. […] Data are shown as mean±SD (n=3). *, P<0.001 versus CTL; **, P<0.001 versus CTL.
Molecular Analysis. […]

PKG = target: T3, PKG (Homo sapiens, UniProt Q13976); experiment: PKG kinase activity in human pulmonary artery smooth muscle cells after SIN-1; type: cell-based
T3 construct: endogenous in cells; host or cells: primary human pulmonary artery smooth muscle cells
T3 sequence (Q13976 1-671): T1 sequence (P00516 1-671) with K265T, N275S
Protocol: In vitro activity of PKG was determined by measuring the transfer of the [g-32P] phosphate group of ATP to the specific PKG substrate, BPDEtide (Calbiochem) in the absence or presence of exogenous 2.5 mM cGMP. The assay was carried out in a total volume of […] containing 150 mM BPDEtide, 10 mM HEPES, 35 mM b-glycerophosphate, 4 mM magnesium acetate, 5 mM PKI (a synthetic protein kinase A inhibitor, Calbiochem), 0.5 mM EDTA, 200 mM ATP, and 2 mCi of [g-32P]ATP (specific activity 3,000 Ci/mmol, GE Amersham). The mixture was incubated at […] for 12 min and terminated by spotting […] aliquots of mixture on phosphocellulose papers (P81, Whatman). The papers were then washed and counted in a liquid scintillation counter. PKG activity is expressed as picmoles of 32P incorporated into PKG substrate per minute per milligram protein.
as §2, §1

Cav1−/− mice = experiment: RVSP in Cav1−/− mice with PH; type: in vivo, mouse; conditions: 8 month old Cav1−/− mice; 5 mg/kg, i.p. daily for 6 wk
Protocol: RVSP was determined as follows. Briefly, following anesthesia, mice were prepared for catheterization. A 1.4 F pressure transducer catheter (Millar Instruments) was carefully inserted via the right external jugular vein into the right ventricle to obtain measurements of RVSP using the Acknowledge software (Biopac Systems, Inc.). To determine lung vascular resistance, mice were anesthetized and prepared for perfusion. Pulmonary arterial (Ppa) and venous (Pv) pressures were monitored continuously through the pulmonary arterial and left atrial cannula, which were connected to a pressure transducer. […] Ppa was measured at steady-state and was plotted against the flow, which was measured by weighing the effluent collected over a one-minute period. […]
To determine whether pharmacological inhibition of eNOS in Cav1^−/− mice can reverse PH, we administered N-Nitro-L-Arginine Methyl Ester (L-NAME), a NOS inhibitor, to Cav1^−/− mice following onset of PH. […] Data are expressed as mean±SD (n=5-7). *, P=0.023 WT versus Cav1^−/−;**, P=0.015 Cav-L versus Cav1^−/−; #, P>0.5 Cav-D versus Cav1^−/−. […] Data are expressed as mean±SD (n=5-7). *, P=0.002 WT versus Cav1^−/−; **, P=0.013 Cav-L versus Cav1^−/−; #, P=0.8 Cav-D versus Cav1^−/−.
Hemodynamic Measurements. RVSP was determined with a 1.4 F pressure transducer catheter (Millar Instruments) and the Acknowledge software (Biopac Systems, Inc.). […]

## NCCN(CCN)/[N+]([O-])=N/O [DETA NONOate]
Purified PKG-1
  PKG activity: failed to suppress PKG activity

## N=c1c[n+](N2CCOCC2)[n-]o1 [SIN-1, 3-morpholinosydnonimine]
PKG-I; SIN-1 at 0.1 mM
  PKG tyrosine nitration: only minimal PKG tyrosine nitration
PKG-I; SIN-1 concentration, 30 min
  PKG tyrosine nitration: significant PKG tyrosine nitration; also recorded: marked PKG tyrosine nitration; also recorded: PKG1 tyrosine nitration
PKG; SIN-1 30 min, after addition of 2.5 mM of cGMP
  PKG kinase activity after addition of cGMP: significant decrease of PKG activity; also recorded: significantly decreased PKG kinase activity; also recorded: impaired kinase activity
PKG; SIN-1 30 min, basal state
  PKG kinase activity, basal: significant decrease of PKG activity; also recorded: significantly decreased PKG kinase activity; also recorded: impaired kinase activity
PKG; SIN-1 at 0.1 mM
  PKG kinase activity: did not decrease PKG kinase activity

## manganese (III) tetrakis (1-methyl-4-pyridyl) porphyrin pentachloride [MnTMPyP]
Cav1−/− mice
  RVSP: reduced RVSP
